Reference: patent publication US4122184A, “Benzimidazole insecticides” (priority 1977, dated 1978)

Columns and labels:
Mexican Bean Beetle = Mexican Bean Beetle Test; assay type: in vivo, Epilachna varivestis (Coleoptera); conditions: 48 h
Summary of the method: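 Snap bean leaves were sprayed on both surfaces with test formulation at a pre-determined level, dried, then infested with ten third-instar Mexican bean beetle larvae per leaf. Mortality (moribund counted as dead) and feeding were scored after 48 h on a rating scale. Malathion at 500 ppm served as reference.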

Two-spotted Spider Mite = Two-spotted Spider Mite test; assay type: in vivo, Tetranychus urticae (Acarina); conditions: 48 h
Description: The procedure in this test is the same as that in the previous aphid test, except that about 100 two-spotted spider mites from a stock colony raised on squash plants are transferred to a cut squash cotyledon. The mortality is estimated 48 hours after spraying. The same rating scale is used.

Milkweed Bug = Milkweed Bug Test; assay type: in vivo, Oncopeltis fasciatus (Hemiptera); conditions: 48 h
Summary of the method: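 Ten chilled adult milkweed bugs per cage sprayed with 5 ml test formulation at 10 psi, then fed and watered. Mortality, counting moribund as dead, scored 48 h after spraying; 500 ppm malathion as reference, unsprayed cages as controls.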

Oriental Cockroach = test: Oriental Roach Test; assay type: in vivo, Blatta orientalis (Orthoptera); conditions: 24 h
Summary of the method: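 Ten late-instar (3-4 month) nymphs per cage, held at 70°-80° F., sprayed with 5 ml of insecticide formulation at a specified amount. Cockroaches kept unfed and unwatered; mortality counted 24 hours post-spray, with insects staying on the cage bottom after light shaking scored dead.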

Bean Leaf Beetle [1] = test: Field trial, stomach poison test; assay type: in vivo
Summary of the method: (§1)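 Spray (10 psi) or dip leaves from infested plants in test solution; air-dry; put in Petri dish; add 5 or 10 insects; score mortality 0–9 at 24/48/72 h. 1–2 reps, usually 2–3 rates.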

[2] = system: Southern Corn Rootworm Adults; test: Field trial, stomach poison test; assay type: in vivo; design: key: mortality rating on a 0 to 9 scale
Summary of the method: as §1

[3] = system: Striped Cucumber Beetle Adults; test: Field trial, stomach poison test; assay type: in vivo; design: key: mortality rating on a 0 to 9 scale
Summary of the method: as §1

Bean Leaf Beetle [4] = test: Field trial, contact poison test; assay type: in vivo
Summary of the method: (§2)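 Infested plants in water-filled bottles sprayed by atomizer at 10 psi with compound at several concentrations. Mortality read at 24, 48 and 72 hours on a 0–9 scale (0 = 0-10%, 9 = 91-100%), averaged per concentration.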

[5] = system: Red-Legged Grasshopper Adults; test: Field trial, contact poison test; assay type: in vivo
Summary of the method: as §2

[6] = system: Southern Corn Rootworm Adults; test: Field trial, contact poison test; assay type: in vivo
Summary of the method: as §2

Yellow Mealworm Larvae = test: Field trial, topical application; assay type: in vivo; design: key: 0 = 0-10% mortality, 9 = 91-100% mortality (0-9 scale)
Summary of the method: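 1 μL benzimidazole solution of set microgram content applied topically to larvae or adults. Mortality read at 24, 48 and 72 h where applicable, rated 0-9 (0 = 0-10%, 9 = 91-100%); values are average mortality per concentration.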

Squash Bug Adults = test: Field trial, contact poison test; assay type: in vivo; design: key: 0-9 rating: 0 = 0-10% mortality, 9 = 91-100% mortality
Summary of the method: as §2

In the case of “mixture of benzyl 2,6-bis(trifluoromethyl)-4-nitro-1-benzimidazolecarboxylate and benzyl 2,5-bis(trifluoromethyl)-7-nitro-1-benzimidazolecarboxylate”, the mortality rating (Mexican Bean Beetle; 50 ppm) is reported as 9 (91-100), the mortality rating (Mexican Bean Beetle; 100 ppm) is reported as 9 (91-100) and the mortality rating (Mexican Bean Beetle; 250 ppm) is reported as 9 (91-100). For the same molecule, the mortality rating (Mexican Bean Beetle; 500 ppm) was 9 (91-100), the mortality rating (Mexican Bean Beetle; 1000 ppm) was 9 (91-100) and the mortality rating (Two-spotted Spider Mite; 10 ppm) was 8 (81-90). For the same molecule, the mortality rating (Two-spotted Spider Mite; 25 ppm) was 7 (71-80), the mortality rating (Two-spotted Spider Mite; 50 ppm) was 9 (91-100) and the mortality rating (Two-spotted Spider Mite; 100 ppm) was 9 (91-100). The mortality rating (Two-spotted Spider Mite; 250 ppm) was 9 (91-100), the mortality rating (Two-spotted Spider Mite; 500 ppm) was 9 (91-100) and the mortality rating (Two-spotted Spider Mite; 1000 ppm) was 9 (91-100). The mortality rating (Milkweed Bug; 10 ppm) was 0 (0-10), the mortality rating (Milkweed Bug; 25 ppm) was 0 (0-10) and the mortality rating (Milkweed Bug; 50 ppm) was 7 (71-80). For the same molecule, the mortality rating (Milkweed Bug; 250 ppm) was 8 (81-90), the mortality rating (Milkweed Bug; 500 ppm) was 8.5 and the mortality rating (Milkweed Bug; 1000 ppm) was 9 (91-100). The mortality rating (Oriental Cockroach; 50 ppm) was 1.5, the mortality rating (Oriental Cockroach; 100 ppm) was 3 (31-40) and the mortality rating (Oriental Cockroach; 250 ppm) was “.5”. For the same molecule, the mortality rating (Oriental Cockroach; 500 ppm) was 1.5, the mortality rating (Oriental Cockroach; 1000 ppm) was 9 (91-100) and the average mortality rating (Bean Leaf Beetle [1]; 10 ppm) was 0 (0-10 percent). It also gave an average mortality rating (Bean Leaf Beetle [1]; 25 ppm) of 1, an average mortality rating (Bean Leaf Beetle [1]; 50 ppm) of 2 and an average mortality rating ([2]; 25 ppm) of 1. For the same molecule, the average mortality rating ([2]; 50 ppm) was 2, the average mortality rating ([2]; 100 ppm) was 4 and the average mortality rating ([3]; 10 ppm) was 4. The average mortality rating ([3]; 25 ppm) was 4, the average mortality rating ([3]; 50 ppm) was 5 and the average mortality rating ([3]; 100 ppm) was 7. For the same molecule, the average mortality rating (Bean Leaf Beetle [4]; 25 ppm) was 0 (0-10 percent), the average mortality rating (Bean Leaf Beetle [4]; 50 ppm) was 2 and the average mortality rating (Bean Leaf Beetle [4]; 100 ppm) was 7. For the same molecule, the average mortality rating ([5]; 25 ppm) was 9 (91-100 percent mortality), the average mortality rating ([5]; 50 ppm) was 9 (91-100 percent mortality) and the average mortality rating ([6]; 25 ppm) was 4. The average mortality rating ([6]; 50 ppm) was 4, the average mortality rating ([6]; 100 ppm) was 9 (91-100 percent mortality) and the average mortality rating (Yellow Mealworm Larvae; 0.03 μg/μl) was 1. The average mortality rating (Yellow Mealworm Larvae; 0.07 μg/μl) was 4 and the average mortality rating (Yellow Mealworm Larvae; 0.15 μg/μl) was 5.

Molecule `O=[N+]([O-])c1cc(C(F)(F)F)cc2[nH]c(C(F)(F)Cl)nc12` [L, 2-chlorodifluoromethyl-4-nitro-6-trifluoromethylbenzimidazole] has a mortality rating (Mexican Bean Beetle; 50 ppm) of 8.5, a mortality rating (Two-spotted Spider Mite; 5 ppm) of 7.5 and a mortality rating (Milkweed Bug; 100 ppm) of 4.5. The mortality rating (Oriental Cockroach; 500 ppm) was 5.5, the average mortality rating (Bean Leaf Beetle [1]; 10 ppm) was 1 and the average mortality rating (Bean Leaf Beetle [1]; 25 ppm) was 1. For the same molecule, the average mortality rating (Bean Leaf Beetle [1]; 50 ppm) was 0 (0-10 percent), the average mortality rating ([2]; 25 ppm) was 1 and the average mortality rating ([2]; 50 ppm) was 4. The average mortality rating ([2]; 100 ppm) was 6, the average mortality rating (Squash Bug Adults; 125 ppm) was 0 (0-10 percent) and the average mortality rating (Squash Bug Adults; 250 ppm) was 6. The average mortality rating (Squash Bug Adults; 500 ppm) was 6, the average mortality rating (Squash Bug Adults; 750 ppm) was 9 (91-100 percent mortality) and the average mortality rating (Bean Leaf Beetle [4]; 25 ppm) was 0 (0-10 percent). For the same molecule, the average mortality rating (Bean Leaf Beetle [4]; 50 ppm) was 4, the average mortality rating (Bean Leaf Beetle [4]; 100 ppm) was 6 and the average mortality rating ([5]; 25 ppm) was 7. The average mortality rating ([5]; 50 ppm) was 9 (91-100 percent mortality), the average mortality rating ([6]; 25 ppm) was 5 and the average mortality rating ([6]; 50 ppm) was 8. For the same molecule, the average mortality rating ([6]; 100 ppm) was 9 (91-100 percent mortality), the average mortality rating (Yellow Mealworm Larvae; 0.03 μg/μl) was 5 and the average mortality rating (Yellow Mealworm Larvae; 0.07 μg/μl) was 5. The average mortality rating (Yellow Mealworm Larvae; 0.15 μg/μl) was 9 (91-100 percent mortality).
